Calls of active or inactive are those of the source. No cut-off for these calls is given here.
Columns and labels:
Egl nine homolog 1 [1] = target: T1, Egl nine homolog 1 (Homo sapiens, UniProt Q9GZT9); test: Competitive inhibition of GST-tagged PHD2 active site assessed as inhibition of hydroxylation of fluorescein-labeled HIF1alpha CODD peptide at 200 uM after 2 hrs by fluorescent polarization assay in presence of 2-oxoglutarate
Target sequence in this assay (Q9GZT9 2-426 limits assumed): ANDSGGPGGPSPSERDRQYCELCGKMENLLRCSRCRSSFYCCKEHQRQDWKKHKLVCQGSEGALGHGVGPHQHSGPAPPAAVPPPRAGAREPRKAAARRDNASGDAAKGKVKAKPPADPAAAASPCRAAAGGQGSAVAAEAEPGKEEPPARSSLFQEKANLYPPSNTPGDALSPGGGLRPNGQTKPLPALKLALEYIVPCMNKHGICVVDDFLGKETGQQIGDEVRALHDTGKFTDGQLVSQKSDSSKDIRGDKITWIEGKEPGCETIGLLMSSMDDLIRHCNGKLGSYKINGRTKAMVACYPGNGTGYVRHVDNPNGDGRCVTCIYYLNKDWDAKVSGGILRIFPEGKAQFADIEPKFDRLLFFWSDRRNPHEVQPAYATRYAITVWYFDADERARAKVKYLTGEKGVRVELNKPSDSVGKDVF

[2] = target: Hypoxia-inducible factor 1-alpha inhibitor (Homo sapiens) (UniProt Q9NWT6); test: Inhibition of FIH assessed as inhibition of hydroxylation of C-TAD peptide at 100 uM after 2 hrs by fluorescent polarization assay in presence of 2-oxoglutarate
Sequence of Hypoxia-inducible factor 1-alpha inhibitor (Homo sapiens) (Q9NWT6 whole entry): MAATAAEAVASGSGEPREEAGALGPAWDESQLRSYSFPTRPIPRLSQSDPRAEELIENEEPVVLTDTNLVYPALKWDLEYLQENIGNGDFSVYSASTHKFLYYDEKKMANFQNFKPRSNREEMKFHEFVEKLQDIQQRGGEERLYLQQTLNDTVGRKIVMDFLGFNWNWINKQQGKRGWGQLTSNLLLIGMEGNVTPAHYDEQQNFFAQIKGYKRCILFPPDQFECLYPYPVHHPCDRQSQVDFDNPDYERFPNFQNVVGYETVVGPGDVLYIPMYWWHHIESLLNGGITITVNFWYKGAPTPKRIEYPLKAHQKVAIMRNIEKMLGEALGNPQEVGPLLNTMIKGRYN

Egl nine homolog 1 [3] = target: T1, Egl nine homolog 1; test: Inhibition of PHD2 in human HeLa cells assessed as stabilization of HIF1alpha at 100 uM incubated for 6 hrs under normoxic conditions by Western blot analysis relative to control; type: cell-based
Target sequence in this assay (Q9GZT9 2-426 limits assumed): as the sequence (Q9GZT9 2-426 limits assumed) above

Egl nine homolog 1 [4] = target: T1, Egl nine homolog 1; test: Inhibition of PHD2 in human HeLa cells assessed as stabilization of HIF1alpha at 1 mM incubated for 6 hrs under normoxic conditions by Western blot analysis relative to control; type: cell-based
Target sequence in this assay (Q9GZT9 2-426 limits assumed): as above

Egl nine homolog 1 [5] = target: T1, Egl nine homolog 1; test: Competitive inhibition of GST-tagged PHD2 active site assessed as inhibition of hydroxylation of fluorescein-labeled HIF1alpha CODD peptide at 100 uM after 2 hrs by fluorescent polarization assay in presence of 2-oxoglutarate
Target sequence in this assay (Q9GZT9 2-426 limits assumed): as above

Egl nine homolog 1 [6] = target: T1, Egl nine homolog 1; test: Inhibition of GST-tagged PHD2 assessed as inhibition of hydroxylation of fluorescein-labeled HIF1alpha CODD peptide after 1 hr by fluorescent polarization assay in presence of 2-oxoglutarate
Target sequence in this assay (Q9GZT9 whole entry): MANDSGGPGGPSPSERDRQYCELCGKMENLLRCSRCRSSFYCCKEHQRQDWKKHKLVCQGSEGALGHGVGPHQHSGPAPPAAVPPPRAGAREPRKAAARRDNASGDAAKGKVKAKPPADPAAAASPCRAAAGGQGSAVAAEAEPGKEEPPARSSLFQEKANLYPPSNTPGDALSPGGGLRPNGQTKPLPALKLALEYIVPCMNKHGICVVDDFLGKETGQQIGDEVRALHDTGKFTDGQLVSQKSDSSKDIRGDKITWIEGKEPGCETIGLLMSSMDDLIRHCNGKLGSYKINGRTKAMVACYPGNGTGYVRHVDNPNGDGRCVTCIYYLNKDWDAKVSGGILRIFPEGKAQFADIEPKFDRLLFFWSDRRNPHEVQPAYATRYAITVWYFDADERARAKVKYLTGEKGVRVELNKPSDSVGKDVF

Egl nine homolog 1 [7] = target: T1, Egl nine homolog 1; test: Inhibition of GST-tagged PHD2 assessed as inhibition of hydroxylation of fluorescein-labeled HIF1alpha CODD peptide at 100 uM after 2 hrs by fluorescent polarization assay in presence of 2-oxoglutarate
Target sequence in this assay (Q9GZT9 2-426 limits assumed): as the sequence (Q9GZT9 2-426 limits assumed) above

Egl nine homolog 1 [8] = target: T1, Egl nine homolog 1; test: Inhibition of GST-tagged PHD2 assessed as inhibition of hydroxylation of biotinylated HIF1alpha CODD peptide at 100 uM after 20 mins by MALDI-TOF technique in presence of 2-oxoglutarate
Target sequence in this assay (Q9GZT9 2-426 limits assumed): as above

| inhibition (Egl nine homolog 1 [1]) | inhibition [2] | Activity (Egl nine homolog 1 [3]) | Activity (Egl nine homolog 1 [4]) | inhibition (Egl nine homolog 1 [5]) | IC50 (Egl nine homolog 1 [6]) [µM] | inhibition (Egl nine homolog 1 [7]) | inhibition (active/inactive call) (Egl nine homolog 1 [8]) | Compound |
| --- | --- | --- | --- | --- | --- | --- | --- | --- |
| Active | Active | Active |  |  |  |  |  | O=c1cc(-c2ccccc2)oc2cc(O)c(O)c(O)c12 |
|  | Active |  | Active | inactive | 8.5 | Active | Active | O=C(O)[C@@H]1C=CCN1 |
|  |  |  |  |  |  |  | inactive | O=C(O)[C@@H]1C[C@@H](O)CN1 |
|  |  |  |  |  |  |  | inactive | O=C(O)[C@@H]1C[C@@H](F)CN1 |
|  | Active |  |  | inactive | 69.7 | Active | Active | O=C(O)[C@@H]1CC(=S)CN1 |

Reference: ChEMBL document CHEMBL1800070, “Inhibition of a prolyl hydroxylase domain (PHD) by substrate analog peptides” (Bioorg Med Chem Lett, 2011)
